# Laboratory results as given in patent US8471005B2 (Cephalon, Inc., priority 2008, dated 2013).
# Where two headings read alike, the source gives them in different places.
# Tests used:
# JAK2 = biological target: T1, JAK2 (Homo sapiens, UniProt O60674); experiment: Recombinant Human JAK2 Kinase Assay (TRF); type: biochemical; settings: read-out: JAK2 Potency
# T1 construct: host or cells: baculovirus expression system
# Procedure, shortened: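 TRF read-out: Eu-N1 PY100 anti-phosphotyrosine antibody detects product. Enzyme is baculovirus-expressed JAK2 at 15 ng/ml; substrate is a biotinyl 15-mer peptide bound to Neutravidin-coated wells. Buffer 20 mM HEPES pH 7.2, 0.2 μM ATP, 1 mM MnCl2, 0.1% BSA, 2.5% DMSO final; 20 min, RT.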
# ALK = biological target: T2, ALK (Homo sapiens, UniProt Q9UM73); experiment: ALK Kinase Assay (ELISA/TRF, PLC-γ substrate); type: biochemical; settings: read-out: ALK Potency
# T2 construct: host or cells: baculovirus expression system
# Procedure, shortened: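 PLC-γ coat 10 μg/mL in TBS; ALK 30 ng/ml added to start; 37° C, 15 min; Eu-N1 PT66 antibody detection (TRF). IC50: % inhibition vs log10 [cpd], variable-slope sigmoidal fit.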
# [1] = JAK2 kinase inhibition, 0.2 μM ATP
# [2] = ALK kinase inhibition, 1 μM ATP
# T1 sequence (O60674 whole entry): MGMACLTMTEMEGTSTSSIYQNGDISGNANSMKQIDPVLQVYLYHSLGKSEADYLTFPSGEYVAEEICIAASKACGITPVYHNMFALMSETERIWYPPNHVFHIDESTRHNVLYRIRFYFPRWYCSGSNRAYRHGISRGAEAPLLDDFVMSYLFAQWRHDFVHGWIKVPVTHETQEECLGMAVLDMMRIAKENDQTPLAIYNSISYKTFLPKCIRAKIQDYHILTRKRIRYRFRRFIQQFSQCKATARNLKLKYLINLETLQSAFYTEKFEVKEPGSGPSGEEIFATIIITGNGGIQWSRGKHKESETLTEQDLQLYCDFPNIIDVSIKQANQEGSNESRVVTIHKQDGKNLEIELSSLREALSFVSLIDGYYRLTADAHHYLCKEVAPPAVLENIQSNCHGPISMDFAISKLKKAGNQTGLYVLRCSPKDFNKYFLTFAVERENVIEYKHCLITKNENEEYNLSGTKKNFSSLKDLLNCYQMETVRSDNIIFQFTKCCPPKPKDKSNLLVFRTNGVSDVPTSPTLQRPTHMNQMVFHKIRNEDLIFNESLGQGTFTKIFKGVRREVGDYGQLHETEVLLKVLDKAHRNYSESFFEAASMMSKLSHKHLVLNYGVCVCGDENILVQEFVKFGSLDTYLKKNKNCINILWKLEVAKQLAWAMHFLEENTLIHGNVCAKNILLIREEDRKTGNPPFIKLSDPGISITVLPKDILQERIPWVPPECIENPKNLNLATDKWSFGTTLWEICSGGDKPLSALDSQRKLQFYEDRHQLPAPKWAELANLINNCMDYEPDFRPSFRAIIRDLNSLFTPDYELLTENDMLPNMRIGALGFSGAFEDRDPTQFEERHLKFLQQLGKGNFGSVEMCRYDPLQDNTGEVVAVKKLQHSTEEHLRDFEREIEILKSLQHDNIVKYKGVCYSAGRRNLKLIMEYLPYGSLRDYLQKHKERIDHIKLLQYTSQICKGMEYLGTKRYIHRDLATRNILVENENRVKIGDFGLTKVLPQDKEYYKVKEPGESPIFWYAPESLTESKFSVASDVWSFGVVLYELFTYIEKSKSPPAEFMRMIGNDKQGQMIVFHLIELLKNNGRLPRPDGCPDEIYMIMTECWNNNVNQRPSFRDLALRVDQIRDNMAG
# T2 sequence (Q9UM73 19-1620): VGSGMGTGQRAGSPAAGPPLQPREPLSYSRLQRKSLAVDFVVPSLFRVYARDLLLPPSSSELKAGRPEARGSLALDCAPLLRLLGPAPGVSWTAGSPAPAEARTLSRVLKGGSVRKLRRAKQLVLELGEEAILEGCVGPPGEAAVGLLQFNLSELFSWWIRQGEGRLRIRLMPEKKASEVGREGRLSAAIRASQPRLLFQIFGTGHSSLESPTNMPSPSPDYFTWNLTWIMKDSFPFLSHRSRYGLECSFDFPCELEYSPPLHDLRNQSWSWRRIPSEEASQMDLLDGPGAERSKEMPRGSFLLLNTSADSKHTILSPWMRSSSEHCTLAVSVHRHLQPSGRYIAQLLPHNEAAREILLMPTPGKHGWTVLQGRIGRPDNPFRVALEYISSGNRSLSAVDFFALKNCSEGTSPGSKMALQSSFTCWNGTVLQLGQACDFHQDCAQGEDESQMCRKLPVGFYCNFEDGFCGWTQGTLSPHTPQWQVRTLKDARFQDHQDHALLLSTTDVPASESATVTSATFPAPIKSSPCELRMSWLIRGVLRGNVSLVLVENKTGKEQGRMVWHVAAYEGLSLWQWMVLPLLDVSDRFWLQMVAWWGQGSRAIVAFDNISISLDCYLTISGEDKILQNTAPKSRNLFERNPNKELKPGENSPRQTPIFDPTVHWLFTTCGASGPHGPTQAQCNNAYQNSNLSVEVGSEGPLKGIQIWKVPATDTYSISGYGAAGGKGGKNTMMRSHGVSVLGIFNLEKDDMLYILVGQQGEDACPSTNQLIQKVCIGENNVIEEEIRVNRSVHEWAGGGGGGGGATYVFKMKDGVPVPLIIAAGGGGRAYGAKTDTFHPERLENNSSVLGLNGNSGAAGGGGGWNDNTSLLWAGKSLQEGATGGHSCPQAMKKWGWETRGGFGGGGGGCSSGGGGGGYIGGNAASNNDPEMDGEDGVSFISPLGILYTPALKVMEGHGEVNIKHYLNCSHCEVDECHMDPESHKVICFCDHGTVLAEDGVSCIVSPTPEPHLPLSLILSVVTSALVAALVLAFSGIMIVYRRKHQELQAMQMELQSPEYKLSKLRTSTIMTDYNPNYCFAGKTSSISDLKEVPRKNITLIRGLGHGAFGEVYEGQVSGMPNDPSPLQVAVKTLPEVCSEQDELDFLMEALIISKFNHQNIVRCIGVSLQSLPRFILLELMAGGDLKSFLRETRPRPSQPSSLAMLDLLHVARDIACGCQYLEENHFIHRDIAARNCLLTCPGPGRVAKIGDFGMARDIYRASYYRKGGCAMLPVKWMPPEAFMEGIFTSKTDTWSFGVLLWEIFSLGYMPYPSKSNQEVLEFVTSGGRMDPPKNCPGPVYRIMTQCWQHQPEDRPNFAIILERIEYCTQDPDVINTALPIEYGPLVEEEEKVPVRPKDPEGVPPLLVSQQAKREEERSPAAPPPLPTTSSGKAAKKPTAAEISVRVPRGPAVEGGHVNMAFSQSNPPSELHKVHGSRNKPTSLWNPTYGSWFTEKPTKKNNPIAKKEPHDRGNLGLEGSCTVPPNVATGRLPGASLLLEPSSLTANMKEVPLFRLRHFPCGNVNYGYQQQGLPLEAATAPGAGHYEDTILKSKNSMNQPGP
Structure (SMILES),IC50 (JAK2; JAK2 Kinase Inhibition) [nM],IC50 (ALK; ALK Kinase Inhibition) [nM],IC50 (JAK2; [1]) [nM],IC50 (ALK; [2]) [nM]
"CN1CCN(CC2CCN(c3ccc(Nc4ncc5ccc(-c6ccccc6N(C)S(C)(=O)=O)n5n4)cc3)CC2)CC1 [Example 450, N-Methyl-N-[2-(2-{4-[4-(4-methyl-piperazin-1-ylmethyl)-piperidin-1-yl]-phenylamino}-pyrrolo[2,1-f][1,2,4]triazin-7-yl)-phenyl]-methanesulfonamide]",< 100,< 100,–,–
"COc1ccccc1-c1ccc2cnc(Nc3ccc(N4CCC(CN5CCN(C)CC5)CC4)cc3)nn12 [Example 451, [7-(2-Methoxy-phenyl)-pyrrolo[2,1-f][1,2,4]triazin-2-yl]-{4-[4-(4-methyl-piperazin-1-ylmethyl)-piperidin-1-yl]-phenyl}-amine]",< 100,< 100,–,–
"CN1CCN(CC2CCN(c3ccc(Nc4ncc5ccc(-c6ccc(S(C)(=O)=O)cc6)n5n4)cc3)CC2)CC1 [Example 452, [7-(4-Methanesulfonyl-phenyl)-pyrrolo[2,1-f][1,2,4]triazin-2-yl]-{4-[4-(4-methyl-piperazin-1-ylmethyl)-piperidin-1-yl]-phenyl}-amine]",< 100,100 to 1000,–,–
"COc1cc(N2CCC(N3CCOCC3)CC2)ccc1Nc1ncc2ccc(-c3ccccc3NC(C)=O)n2n1 [Example 453, N-(2-{2-[2-Methoxy-4-(4-morpholin-4-yl-piperidin-1-yl)-phenylamino]-pyrrolo[2,1-f][1,2,4]triazin-7-yl}-phenyl)-acetamide]",1000 to 10000,100 to 1000,–,–
"CC(=O)Nc1ccccc1-c1ccc2cnc(Nc3ccc(N4CCC(N5CCOCC5)CC4)cc3)nn12 [Example 454, N-(2-{2-[4-(4-Morpholin-4-yl-piperidin-1-yl)-phenylamino]-pyrrolo[2,1-f][1,2,4]triazin-7-yl}-phenyl)-acetamide]",< 100,100 to 1000,–,–
"CN1CCN(CC2CCCN(c3ccc(Nc4ncc5ccc(-c6ccccc6N(C)S(C)(=O)=O)n5n4)cc3)C2)CC1 (stereo not drawn) [Example 455, N-Methyl-N-[2-(2-{4-[3-(4-methyl-piperazin-1-ylmethyl)-piperidin-1-yl]-phenylamino}-pyrrolo[2,1-f][1,2,4]triazin-7-yl)-phenyl]-methanesulfonamide]",< 100,< 100,–,–
"COc1ccccc1-c1ccc2cnc(Nc3ccc(N4CCCC(CN5CCN(C)CC5)C4)cc3)nn12 (stereo not drawn) [Example 456, [7-(2-Methoxy-phenyl)-pyrrolo[2,1-f][1,2,4]triazin-2-yl]-{4-[3-(4-methyl-piperazin-1-ylmethyl)-piperidin-1-yl]-phenyl}-amine]",< 100,< 100,–,–
"CN1CCN(CC2CCCN(c3ccc(Nc4ncc5ccc(-c6ccc(S(C)(=O)=O)cc6)n5n4)cc3)C2)CC1 (stereo not drawn) [Example 457, [7-(4-Methanesulfonyl-phenyl)-pyrrolo[2,1-f][1,2,4]triazin-2-yl]-{4-[3-(4-methyl-piperazin-1-ylmethyl)-piperidin-1-yl]-phenyl}-amine]",< 100,100 to 1000,–,–
"COc1cc(N2CCC(C(=O)N3CCN(C)CC3)CC2)ccc1Nc1ncc2ccc(-c3ccccc3OC)n2n1 [Example 458, (1-{3-Methoxy-4-[7-(2-methoxy-phenyl)-pyrrolo[2,1-f][1,2,4]triazin-2-ylamino]-phenyl}-piperidin-4-yl)-(4-methyl-piperazin-1-yl)-methanone]",100 to 1000,< 100,–,–
"COc1cc(N2CCC(C(=O)N3CCN(C)CC3)CC2)ccc1Nc1ncc2ccc(-c3ccccc3N(C)S(C)(=O)=O)n2n1 [Example 459, N-[2-(2-{2-Methoxy-4-[4-(4-methyl-piperazine-1-carbonyl)-piperidin1-yl]-phenylamino}-pyrrolo[2,1-f][1,2,4]triazin-7-yl)-phenyl]-N-methyl-methanesulfonamide]",100 to 1000,< 100,–,–
"COc1cc(N2CCC[C@H](C(=O)N3CCN(C)CC3)C2)ccc1Nc1ncc2ccc(-c3ccccc3N(C)S(C)(=O)=O)n2n1 [Example 460, N-[2-(2-{2-Methoxy-4-[(S)-3-(4-methyl-piperazine-1-carbonyl)-piperidin-1-yl]-phenylamino}-pyrrolo[2,1-f][1,2,4]triazin-7-yl)-phenyl]-N-methyl-methanesulfonamide]",100 to 1000,< 100,–,–
"COc1cc(N2CCC[C@H](C(=O)N3CCN(C)CC3)C2)ccc1Nc1ncc2ccc(-c3ccccc3OC)n2n1 [Example 461, ((S)-1-{3-Methoxy-4-[7-(2-methoxy-phenyl)-pyrrolo[2,1-f][1,2,4]triazin-2-ylamino]-phenyl}-piperidin-3-yl)-(4-methyl-piperazin-1-yl)-methanone]",100 to 1000,< 100,–,–
"COc1cc(N2CCC[C@@H](C(=O)N3CCN(C)CC3)C2)ccc1Nc1ncc2ccc(-c3ccccc3N(C)S(C)(=O)=O)n2n1 [Example 462, N-[2-(2-{2-Methoxy-4-[(R)-3-(4-methyl-piperazine-1-carbonyl)-piperidin-1-yl]-phenylamino}-pyrrolo[2,1-f][1,2,4]triazin-7-yl)-phenyl]-N-methyl-methanesulfonamide]",100 to 1000,< 100,–,–
"COc1cc(N2CCC[C@@H](C(=O)N3CCN(C)CC3)C2)ccc1Nc1ncc2ccc(-c3ccccc3OC)n2n1 [Example 463, ((R)-1-{3-Methoxy-4-[7-(2-methoxy-phenyl)-pyrrolo[2,1-f][1,2,4]triazin-2-ylamino]-phenyl}-piperidin-3-yl)-(4-methyl-piperazin-1-yl)-methanone]",100 to 1000,< 100,–,–
"COc1ccc(-c2ccc3cnc(Nc4ccc(N5CCC[C@@H](C(=O)N6CCN(C)CC6)C5)cc4OC)nn23)cn1 [Example 464, ((R)-1-{3-Methoxy-4-[7-(6-methoxy-pyridin-3-yl)-pyrrolo[2,1-f][1,2,4]triazin-2-ylamino]-phenyl}-piperidin-3-yl)-(4-methyl-piperazin-1-yl)-methanone]",< 100,100 to 1000,–,–
"COc1cc(N2CCC[C@H](CN3CCN(C)CC3)C2)ccc1Nc1ncc2ccc(-c3ccccc3N(C)S(C)(=O)=O)n2n1 [Example 465, N-[2-(2-{2-Methoxy-4-[(R)-3-(4-methyl-piperazin-1-ylmethyl)-piperidin-1-yl]-phenylamino}-pyrrolo[2,1-f][1,2,4]triazin-7-yl)-phenyl]-N-methyl-methanesulfonamide]",100 to 1000,< 100,–,–
"COc1cc(N2CCC[C@H](CN3CCN(C)CC3)C2)ccc1Nc1ncc2ccc(-c3ccccc3OC)n2n1 [Example 466, {2-Methoxy-4-[(R)-3-(4-methyl-piperazin-1-ylmethyl)-piperidin-1-yl]-phenyl}-[7-(2-methoxy-phenyl)-pyrrolo[2,1-f][1,2,4]triazin-2-yl]-amine]",100 to 1000,< 100,–,–
"COc1cc(N2CCC(CN3CCN(C)CC3)CC2)ccc1Nc1ncc2ccc(-c3ccccc3N(C)S(C)(=O)=O)n2n1 [Example 467, N-[2-(2-{2-Methoxy-4-[4-(4-methyl-piperazin-1-ylmethyl)-piperidin-1-yl]-phenylamino}-pyrrolo[2,1-f][1,2,4]triazin-7-yl)-phenyl]-N-methyl-methanesulfonamide]",100 to 1000,< 100,–,–
"COc1cc(N2CCC(CN3CCN(C)CC3)CC2)ccc1Nc1ncc2ccc(-c3ccccc3OC)n2n1 [Example 468, {2-Methoxy-4-[4-(4-methyl-piperazin-1-ylmethyl)-piperidin-1-yl]-phenyl}-[7-(2-methoxy-phenyl)-pyrrolo[2,1-f][1,2,4]triazin-2-yl]-amine]",100 to 1000,< 100,–,–
"COc1cc(N2CCC[C@@H](CN3CCN(C)CC3)C2)ccc1Nc1ncc2ccc(-c3ccccc3N(C)S(C)(=O)=O)n2n1 [Example 469, N-[2-(2-{2-Methoxy-4-[(S)-3-(4-methyl-piperazin-1-ylmethyl)-piperidin-1-yl]-phenylamino}-pyrrolo[2,1-f][1,2,4]triazin-7-yl)-phenyl]-N-methyl-methanesulfonamide]",100 to 1000,< 100,–,–
"COc1cc(N2CCC[C@@H](CN3CCN(C)CC3)C2)ccc1Nc1ncc2ccc(-c3ccccc3OC)n2n1 [Example 470, {2-Methoxy-4-[(S)-3-(4-methyl-piperazin-1-ylmethyl)-piperidin-1-yl]-phenyl}-[7-(2-methoxy-phenyl)-pyrrolo[2,1-f][1,2,4]triazin-2-yl]-amine]",–,–,100 to 1000,< 100
"COc1cc(N(C)C(=O)CN2CCN(C)CC2)ccc1Nc1ncc2ccc(-c3ccccc3N(C)S(C)(=O)=O)n2n1 [Example 471, N-(4-{7-[2-(Methanesulfonyl-methyl-amino)-phenyl]-pyrrolo[2,1-f][1,2,4]triazin-2-ylamino}-3-methoxy-phenyl)-N-methyl-2-(4-methyl-piperazin-1-yl)-acetamide]",–,–,1000 to 10000,100 to 1000
"COc1cc(N(C)C(=O)CN2CCOCC2)ccc1Nc1ncc2ccc(-c3ccccc3OC)n2n1 [Example 472, N-{3-Methoxy-4-[7-(2-methoxy-phenyl)-pyrrolo[2,1-f][1,2,4]triazin-2-ylamino]-phenyl}-N-methyl-2-morpholin-4-yl-acetamide]",–,–,100 to 1000,< 100
"COc1cc(N(C)C(=O)CN2CCOCC2)ccc1Nc1ncc2ccc(-c3ccccc3N(C)S(C)(=O)=O)n2n1 [Example 473, N-(4-{7-[2-(Methanesulfonyl-methyl-amino)-phenyl]-pyrrolo[2,1-f][1,2,4]triazin-2-ylamino}-3-methoxy-phenyl)-N-methyl-2-morpholin-4-yl-acetamide]",–,–,1000 to 10000,< 100
